According to US8735620B2, “Processes for preparing (E)-styrylbenzylsulfone compounds and uses thereof for treating proliferative disorders” (priority 2008, dated 2014):

Legend:
MES-SA = assay: Tumor cell killing, MES-SA (parental uterine sarcoma); format: cell-based, human; details: Homo sapiens; parental cell line MES-SA, 96 h dose response; read-out: IC50
Description: (§1) A. 6aa inhibits the growth of parental (MES-SA) and Paclitaxel resistant (MES-SA/DX5) cell lines with equal efficiency. The parental uterine sarcoma cells and the MDR positive (MES-SA/DX5) cells were plated into 6 well dishes and treated with various concentrations of 6aa and Paclitaxel for 96 h. The number of viable cells from duplicate plates was determined by trypan blue exclusion. B. Soft Agar Assays. MIA-PaCa-2 cells (1.0×10^5) were plated in soft agar containing various concentrations of each compound in triplicates. After three weeks of growth, the plates were stained for 48 h using 0.05% nitroblue tetrazolium solution. Representative plates were photographed using an Olympus stereoscope mounted with a Sony digital camera system (DKC5000, Sony Inc). Tissue Culture and Reagents: […] Cell lines were purchased from ATCC. Cell lines were routinely grown in DMEM or RPM1 (CellGro) supplemented with 10% fetal bovine serum (Atlas) and 1 unit/mL penicillin-streptomycin (Gibco). A number of tumor cell lines were tested using a dose response end point assay system. The cells were grown in either DMEM or RPMI supplemented with 10% fetal bovine serum and 1 unit/mL Penicillin-Streptomycin solution. […] Cell counts were determined from duplicate wells after 96 h of treatment. The total number of viable cells was determined by trypan blue exclusion.

MES-SA/DX5 = assay: Tumor cell killing, MES-SA/DX5 (multidrug resistant subline); format: cell-based, human
Description: as §1

MIA-PaCa-2 cells = assay: Soft agar colony formation, MIA-PaCa-2; format: cell-based, human
Description: FIG. 1 Anti-tumor effects of (E)-2,4,6-Trimethoxystyryl-3-Hydroxy-4-Methoxybenzyl Sulfone (6aa). A. 6aa inhibits the growth of parental (MES-SA) and Paclitaxel resistant (MES-SA/DX5) cell lines with equal efficiency. The parental uterine sarcoma cells and the MDR positive (MES-SA/DX5) cells were plated into 6 well dishes and treated with various concentrations of 6aa and Paclitaxel for 96 h. The number of viable cells from duplicate plates was determined by trypan blue exclusion. B. Soft Agar Assays. MIA-PaCa-2 cells (1.0×10^5) were plated in soft agar containing various concentrations of each compound in triplicates. After three weeks of growth, the plates were stained for 48 h using 0.05% nitroblue tetrazolium solution. Representative plates were photographed using an Olympus stereoscope mounted with a Sony digital camera system (DKC5000, Sony Inc).
The soft agar plates were prepared as described by Cosenza, et al (Cosenza, S. C. et al. In Cell Growth, Differentiation and Senescence, Studzinski, G. P., Ed.; Oxford University Press: 1999, 161-176.). Briefly, Noble bottom agar (0.8%) was plated onto 60 mm tissue culture plates. Exponentially growing MIA-PaCa-2 cells (1.0×10^5) were mixed with growth medium with various concentrations of each compound and mixed with Noble agar to a final concentration of 0.4%. Each concentration was plated in triplicate. The top agar was allowed to solidify and the plates were then incubated at 5% CO2 at 37° C. for 3 weeks. The plates were then stained with 0.05% nitroblue tetrazolium (NBT) solution and representative plates were photographed using an Olympus stereoscope mounted with a Sony digital camera system (DKC5000, Sony Inc).

[1] = tested on: BT20 (human breast tumor cell line); assay: Cytotoxicity assay (trypan blue exclusion, 96 h), BT20; format: cell-based; details: BT20, 96 h treatment
Description: (§2) Tissue Culture and Reagents: Paclitaxel was purchased from Sigma. Cell lines were purchased from ATCC. Cell lines were routinely grown in DMEM or RPM1 (CellGro) supplemented with 10% fetal bovine serum (Atlas) and 1 unit/mL penicillin-streptomycin (Gibco).

[2] = tested on: DU145 (human prostate tumor cell line); assay: Cytotoxicity assay (trypan blue exclusion, 96 h), DU145; format: cell-based; details: DU145, 96 h treatment; read-out: DU145 IC50
Description: as §2

[3] = tested on: H157 (human lung tumor cell line); assay: Cytotoxicity assay (trypan blue exclusion, 96 h), H157; format: cell-based; details: H157, 96 h treatment; read-out: H157 IC50
Description: as §2

[4] = tested on: DLD1 (human colorectal tumor cell line); assay: Cytotoxicity assay (trypan blue exclusion, 96 h), DLD1; format: cell-based; details: DLD1, 96 h treatment; read-out: DLD1 IC50
BT20 = assay: Soft agar colony formation, BT20; format: cell-based, human; details: BT20, dose dependent
DU145 = assay: Soft agar colony formation, DU145; format: cell-based, human; details: DU145, dose dependent
[5] = tested on: BT20 human breast carcinoma xenograft; assay: Nude mouse xenograft assay
Description: Female athymic (NCr-nu/nu) mice were injected subcutaneously with 0.5-1×10^7 ER-negative human breast tumor cells (BT-20) in 0.2 mL of PBS and the tumors allowed to grow to a size of 100-150 mm^3 in size in about 14 days. The mice were then paired such that the pairs harbored equal sized tumors, which were then used to test the therapeutic effects of 6s and 6ab. A Of the pairs, the animals were treated with either 50 mg/kg 6s following a Q4D schedule or 25 mg/kg using a Q2D schedule or vehicle (DMSO) control. The tumor size was then measured on alternate days in two dimensions and the volume determined using either of the following equations: 1: V=(L×(S^2))π/6); where L is the longer and S is the shorter of the two measurements. B. 6ab was dissolved in PBS and was administered intravenously (50 mg/kg) through the tail vein on every alternate day. Tumor measurements were done as in materials and methods.
Female athymic (NCR-nu/nu, Taconic) nude mice were injected with 0.5-1.0×10^7 BT20 cells subcutaneously in the hind leg using a 1 mL tuberculin syringe equipped with a 271/2 gauge needle. Approximately 14 days later, mice were paired (N=8) and injected with 6ab or Phosphate buffered saline as the vehicle control. The intravenous injections were performed in the mouse tail vein using a 1 mL tuberculin syringe equipped with a 30 gauge needle. The animals were injected following a Q2D×3 schedule. Tumor measurements (two dimensions) were done three times per week using traceable digital vernier calipers (Fisher).

[6] = Single dose and repeat-dose toxicology studies in mice; format: in vivo
[7] = Acute and repeat toxicity studies in rats; format: in vivo; details: intravenous
Description: Single dose and repeat-dose (28 daily injections) toxicology studies were carried out with one water-soluble form of this series (6ab) to assess the safety of intravenously administered drug in rats.

[8] = tested on: BT20, DU145, H157 and DLD1 cell lines; assay: In vitro cytotoxicity, four human tumor cell lines (SAR discussion); format: cell-based; details: four human tumor cell lines
Description: A number of tumor cell lines were tested using a dose response end point assay system. The cells were grown in either DMEM or RPMI supplemented with 10% fetal bovine serum and 1 unit/mL Penicillin-Streptomycin solution. The tumor cells were plated into 6 well dishes at a cell density of 1.0×10^5 cells/mL/well and compounds were added 24 h later at various concentrations. Cell counts were determined from duplicate wells after 96 h of treatment. The total number of viable cells was determined by trypan blue exclusion.
Following the synthesis of this group of compounds, their in vitro cytotoxicity was assessed using four different human tumor cell lines derived from human breast (BT20), prostate (DU145), lung (H157) and colorectal (DLD1) cancers. […] In a majority of the compounds described here, a methoxy group was kept constant at the 4th position on the aromatic ring of the benzyl moiety.

[9] = tested on: mantle cell lymphoma cell lines; details: Park et al Oncogene 2007; cited from earlier work
[10] = single dose and repeat-dose (28 daily injections)

CC(=O)O[C@H]1C(=O)[C@@]2(C)[C@H]([C@H](OC(=O)c3ccccc3)[C@]3(O)C[C@H](OC(=O)[C@H](O)[C@@H](NC(=O)c4ccccc4)c4ccccc4)C(C)=C1C3(C)C)[C@]1(OC(C)=O)CO[C@@H]1C[C@@H]2O [Paclitaxel, reference compound]
IC50 (MES-SA): 4 nM
IC50 (MES-SA/DX5; Homo sapiens, MDR positive subline MES-SA/DX5, 96 h dose response, read-out: IC50): 750 nM
fold resistance of MDR positive subline versus parental cell line (MES-SA/DX5; MES-SA/DX5 vs MES-SA): greater than 100 fold
potency in soft agar relative to 6aa and 6ab (MIA-PaCa-2 cells; positive control, FIG. 1b): slightly lower potency

(E)-2,4,6-Trimethoxystyryl-3^1-O-phosphate disodium-4-methoxybenzyl Sulfone [6ab]
IC50 [1]: 5 nM
IC50 [2]: 2.5 nM
IC50 [3]: 7 nM
IC50 [4]: 7 nM
growth of tumor cells in soft agar (BT20): complete inhibition of the growth of tumor cells
growth of tumor cells in soft agar (DU145): complete inhibition of the growth of tumor cells
growth of tumor cells in soft agar (MIA-PaCa-2 cells; MIA-PaCa-2, dose dependent, three weeks): complete inhibition of the growth of tumor cells
tumor growth in xenograft model ([5]; 50 mg/kg IV tail vein, alternate days, 21 days): readily inhibited tumor growth
tumor volume response of the majority of the mice ([5]; 8 mice per group): growth arrest or a gradual reduction in their tumor volume
animal deaths ([5]; IV, Q2D×3 schedule): nor were there any animal deaths
body weight loss ([5]; IV, Q2D×3 schedule): Body weight loss of more than 10% was not observed
drug levels in circulation [6]: High, dose dependent, drug levels were sustained in circulation
hematotoxicity, liver damage, neurotoxicity [6, 10]: did not cause hematotoxicity (no myleosuppression), liver damage or detectable neurotoxicity
drug levels in circulation [7]: High dose dependent drug levels were sustained in circulation
hematotoxicity, liver damage, neurotoxicity [7, 10]: did not cause hematotoxicity (no myleosuppression), liver damage or any detectable neurotoxicity
cytotoxic activity, SAR statement [8]: did not alter the potency
effect on mantle cell lymphoma cell lines [9]: altered the growth and cell cycle status
water solubility (Water solubility): highly water-soluble
